Source: EP4813993A1, “COMPOUND, PREPARATION METHOD THEREFOR, AND USE THEREOF” (Sichuan Kelun Pharmaceutical Research Institute Co., Ltd., priority 2023, dated 2025)

Target: T1, Nav1.8 channels (Homo sapiens, UniProt Q9Y5Y9)
T1 construct: expressed in transfected cells
Assay: Manual patch-clamp, current of stably overexpressed Nav1.8 channels (resting state voltage program)
Type: cell-based
Conditions: for inhibition at 0.01 µM / inhibition at 0.001 µM: read-out: Inhibition rate %; for inhibition at 0.001 µM: concentration of 1 nM
Description: Experimental Example 1: Effects of test substances on current of stably overexpressed Nav1.8 channels monitored via manual patch-clamp technique
Test compounds were dissolved in dimethyl sulfoxide (DMSO).
The extracellular fluid was as follows: 140 mM NaCl, 3.5 mM KCl, 1 mM MgCl2•6H2O, 2 mM CaCl2•2H2O, 10 mM D-Glucose, 10 mM HEPES, 1.25 mM NaH2PO4•2H2O; the pH was adjusted to 7.4 with NaOH. The intracellular fluid was as follows: 50 mM CsCl, 10 mM NaCl, 10 mM HEPES, 60 mM CsF, 20 mM EGTA; the pH was adjusted to 7.2 with CsOH.
2. Experimental materials and instruments
• 1) patch-clamp amplifier: EPC 10 (HEKA) • 2) micromanipulator: MP225 (Sutter Instrument) • 3) inverted microscope: MF53 (Mshot) • 4) micropipette puller: P97 (Sutter Instrument) • 5) capillary glass tube: BF150-86-10 (Sutter Instrument)
3. Experimental procedures
• 1) After the compounds were prepared into solutions with specified concentrations, the solutions were sequentially added to the pipeline of the drug delivery system and labeled. • 2) The cell climbing coverslip was placed in the recording chamber, the appropriate cells were selected under the inverted microscope, and the position of the drug delivery tip was adjusted. • 3) A capillary glass tube was pulled into a suitable recording electrode using the micropipette puller, and then the electrode filled with the intracellular fluid was mounted in the microelectrode holder. The micromanipulator was adjusted under the inverted microscope to allow the recording electrode to contact the cell, and negative pressure was applied to the electrode to form a high-resistance seal. At this time, fast capacitance compensation was performed, and then the application of negative pressure was continued to break the cell membrane, forming a whole-cell recording mode. Finally, slow capacitance compensation was performed, and related parameters were recorded. • 4) After the cell current stabilized, administration was started. Each concentration of the drug was applied for five minutes or until the current stabilized before proceeding to monitor the next concentration. The drug solutions were administered via gravity-fed delivery, flowing through the recording chamber to act on the cells in an ascending order of concentration (from low to high). A peristaltic pump was employed for solution exchange in the recording process.
4 Test voltage program (resting state) and results
After the formation of the whole-cell seal, the cell voltage was clamped at -120 mV, followed by depolarization to 0 mV using a square-wave pulse with a duration of 50 ms to elicit Nav1.8 currents. This procedure was repeated every 20 s to monitor the maximum current induced by the square wave. After the current stabilized, the test compounds were administered. Once the response stabilized, the intensity of the current block was calculated.

T1 sequence (Q9Y5Y9 whole entry): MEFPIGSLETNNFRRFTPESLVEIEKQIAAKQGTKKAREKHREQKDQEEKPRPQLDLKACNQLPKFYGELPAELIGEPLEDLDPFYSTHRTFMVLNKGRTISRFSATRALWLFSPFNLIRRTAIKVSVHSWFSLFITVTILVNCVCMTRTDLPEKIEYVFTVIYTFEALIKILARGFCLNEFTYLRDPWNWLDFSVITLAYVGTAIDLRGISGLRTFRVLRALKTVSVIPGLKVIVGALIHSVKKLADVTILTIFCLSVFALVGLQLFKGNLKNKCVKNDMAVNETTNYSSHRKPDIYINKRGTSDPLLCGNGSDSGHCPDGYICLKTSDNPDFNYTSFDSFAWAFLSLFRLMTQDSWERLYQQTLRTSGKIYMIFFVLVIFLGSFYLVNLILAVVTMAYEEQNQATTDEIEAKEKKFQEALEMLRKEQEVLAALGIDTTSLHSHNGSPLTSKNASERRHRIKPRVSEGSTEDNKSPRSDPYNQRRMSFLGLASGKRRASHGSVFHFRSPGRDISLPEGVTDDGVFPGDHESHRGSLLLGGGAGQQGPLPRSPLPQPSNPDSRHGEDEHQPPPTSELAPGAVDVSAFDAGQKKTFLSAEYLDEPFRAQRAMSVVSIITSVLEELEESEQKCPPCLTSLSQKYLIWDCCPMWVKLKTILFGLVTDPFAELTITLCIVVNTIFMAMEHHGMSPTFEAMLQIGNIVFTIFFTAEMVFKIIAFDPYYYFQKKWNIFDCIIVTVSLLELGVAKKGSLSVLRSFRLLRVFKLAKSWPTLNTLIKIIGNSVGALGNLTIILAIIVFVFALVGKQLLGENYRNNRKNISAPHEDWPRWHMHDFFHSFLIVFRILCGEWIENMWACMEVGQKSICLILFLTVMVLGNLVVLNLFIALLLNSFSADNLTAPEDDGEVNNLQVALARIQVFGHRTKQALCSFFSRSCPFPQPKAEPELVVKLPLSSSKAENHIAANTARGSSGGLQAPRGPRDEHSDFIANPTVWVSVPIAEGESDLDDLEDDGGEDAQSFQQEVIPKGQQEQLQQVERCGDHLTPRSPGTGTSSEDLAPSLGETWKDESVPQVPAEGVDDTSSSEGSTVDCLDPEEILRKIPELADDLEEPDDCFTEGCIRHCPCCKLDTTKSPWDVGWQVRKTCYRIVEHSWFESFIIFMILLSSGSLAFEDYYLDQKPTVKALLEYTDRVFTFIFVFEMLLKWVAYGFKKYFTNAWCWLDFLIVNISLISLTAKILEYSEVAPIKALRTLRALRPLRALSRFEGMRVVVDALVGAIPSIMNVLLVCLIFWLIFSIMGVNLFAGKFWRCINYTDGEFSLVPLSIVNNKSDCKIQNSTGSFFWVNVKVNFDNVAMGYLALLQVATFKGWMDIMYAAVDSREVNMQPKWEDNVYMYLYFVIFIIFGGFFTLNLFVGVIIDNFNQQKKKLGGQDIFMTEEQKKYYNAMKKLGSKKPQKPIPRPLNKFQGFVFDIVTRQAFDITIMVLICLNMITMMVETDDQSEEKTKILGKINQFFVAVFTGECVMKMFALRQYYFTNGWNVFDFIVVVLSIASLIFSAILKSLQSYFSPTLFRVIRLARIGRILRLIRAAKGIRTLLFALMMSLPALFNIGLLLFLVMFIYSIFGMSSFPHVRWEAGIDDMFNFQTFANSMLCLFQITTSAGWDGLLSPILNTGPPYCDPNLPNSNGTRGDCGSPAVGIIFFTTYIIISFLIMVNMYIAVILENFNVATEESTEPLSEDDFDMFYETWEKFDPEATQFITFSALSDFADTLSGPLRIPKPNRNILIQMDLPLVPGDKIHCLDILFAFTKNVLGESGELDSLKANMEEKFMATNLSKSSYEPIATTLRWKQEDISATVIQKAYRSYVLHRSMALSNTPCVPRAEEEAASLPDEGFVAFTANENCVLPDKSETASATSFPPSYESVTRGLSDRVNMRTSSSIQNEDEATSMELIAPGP

Row | Compound | inhibition at 0.01 µM (concentration of 10 nM) | further results
1 | COc1c(C2CC(C)(C(F)(F)F)SC2C(=O)Nc2cccc(B(O)O)c2)ccc(F)c1F (stereo not drawn) [Compound 9, (3-(3-(3,4-difluoro-2-methoxyphenyl)-5-methyl-5-(trifluoromethyl)tetrahydrothiophene-2-carboxamido)phenyl)boronic acid] | 84.9% | 
2 | [2H][C@@]1(C(=O)Nc2cccc(B(O)O)c2)S[C@@](C)(C(F)(F)F)C[C@H]1c1ccc(F)c(F)c1OC [Compound 10-A] | 87.5% | 
3 | COc1c(C2CC(C)(C(F)(F)F)SC2C(=O)Nc2ccc(F)c(B(O)O)c2)ccc(F)c1F (stereo not drawn) [Compound 19, (5-(3-(3,4-difluoro-2-methoxyphenyl)-5-methyl-5-(trifluoromethyl)tetrahydrothiophene-2-carboxamido)-2-fluorophenyl)boronic acid] |  | IC50: 0.33 nM
4 | [2H]C1(C(=O)Nc2ccc(F)c(B(O)O)c2)SC(C)(C(F)(F)F)CC1c1ccc(F)c(F)c1OC (stereo not drawn) [Compound 20-A, (5-(3-(3,4-difluoro-2-methoxyphenyl)-5-methyl-5-(trifluoromethyl)tetrahydrothiophene-2-carboxamido-2-d)-2-fluorophenyl)boronic acid] | 87.9% | 
5 | COc1c(C2CC(C)(C(F)(F)F)SC2C(=O)Nc2ccc3c(c2)B(O)OC3)ccc(F)c1F (stereo not drawn) [Compound 31, 3-(3,4-difluoro-2-methoxyphenyl)-N-(1-hydroxy-1,3-dihydrobenzo[c][1,2]oxaborol-6-yl)-5-methyl-5-(trifluoromethyl)tetrahydrothiophene-2-carboxamide] | 65% | 
6 | COc1c([C@@H]2C[C@](C)(C(F)(F)F)S[C@H]2C(=O)Nc2ccc3c(c2)B(O)OC3)ccc(F)c1F [Compound 31-A, (2R,3S,5R)-3-(3,4-difluoro-2-methoxyphenyl)-N-(1-hydroxy-1,3-dihydrobenzo[c][1,2]oxaborol-6-yl)-5-methyl-5-(trifluoromethyl)tetrahydrothiophene-2-carboxamide] | 84.7% | 
7 | COc1c(C2CC(C)(C(F)(F)F)SC2C(=O)Nc2csc(B(O)O)c2)ccc(F)c1F (stereo not drawn) [Compound 48, (4-(3-(3,4-difluoro-2-methoxyphenyl)-5-methyl-5-(trifluoromethyl)tetrahydrothiophene-2-carboxamido)thiophen-2-yl)boronic acid] | 79.8% | 
8 | COc1c([C@@H]2C[C@](C)(C(F)(F)F)S[C@H]2C(=O)Nc2csc(B(O)O)c2)ccc(F)c1F [Compound 48-A, (4-((2R,3S,5R)-3-(3,4-difluoro-2-methoxyphenyl)-5-methyl-5-(trifluoromethyl)tetrahydrothiophene-2-carboxamido)thiophen-2-yl)boronic acid] | 91.5% | 
9 | [2H][C@@]1(C(=O)Nc2csc(B(O)O)c2)S[C@@](C)(C(F)(F)F)C[C@H]1c1ccc(F)c(F)c1OC [Compound 50-A, (4-((2R,3S,5R)-3-(3,4-difluoro-2-methoxyphenyl)-5-methyl-5-(trifluoromethyl)tetrahydrothiophene-2-carboxamido-2-d)thiophen-2-yl)boronic acid] | 80.9% | 
10 | COc1c(C2CC(C)(C(F)(F)F)SC2C(=O)Nc2ccc(B(O)O)cc2)ccc(F)c1F (stereo not drawn) [Compound 82, (4-(3-(3,4-difluoro-2-methoxyphenyl)-5-methyl-5-(trifluoromethyl)tetrahydrothiophene-2-carboxamido)phenyl)boronic acid] | 81.1% | 
11 | COc1c(C2CC(C)(C(F)(F)F)SC2C(=O)Nc2ccc(B(O)O)c(F)c2)ccc(F)c1F (stereo not drawn) [Compound 88, (4-(3-(3,4-difluoro-2-methoxyphenyl)-5-methyl-5-(trifluoromethyl)tetrahydrothiophene-2-carboxamido)-2-fluorophenyl)boronic acid] | 95.6% | 
12 | COc1c(C2CC(C)(C)SC2C(=O)Nc2ccnc(C(N)=O)c2)ccc(F)c1F (stereo not drawn) [Compound 134-A, 4-(3-(3,4-difluoro-2-methoxyphenyl)-5,5-dimethyltetrahydrothiophene-2-carboxamido)picolinamide] |  | Inhibition rate (%) (concentration of 10 nM, 0.01 µM): 87.78%
13 | COc1c(C2C(C(=O)Nc3ccnc(C(N)=O)c3)SC(C)(C(F)(F)F)C2C)ccc(F)c1F (stereo not drawn) [Compound 136, 4-(3-(3,4-difluoro-2-methoxyphenyl)-4,5-dimethyl-5-(trifluoromethyl)tetrahydrothiophene-2-carboxamido)picolinamide] |  | inhibition at 0.001 µM: 61.9%
14 | COc1c(C2CC(C)(C(F)(F)F)SC2C(=O)Nc2ccnc(N)c2)ccc(F)c1F (stereo not drawn) [Compound 175, (4-(3-(3,4-difluoro-2-methoxyphenyl)-5-methyl-5-(trifluoromethyl)tetrahydrothiophene-2-carboxamido)-2-amino)pyridine] |  | inhibition at 0.001 µM: 87.8%

Further lines, with some results ahead:

Row | inhibition at 0.01 µM (concentration of 10 nM) | Compound | further results
15 | 92.7% | COc1c([C@@H]2C[C@](C)(C(F)(F)F)S[C@H]2C(=O)Nc2ccc(B(O)O)c(F)c2)ccc(F)c1F [Compound 88-A, (4-((2R,3S,5R)-3-(3,4-difluoro-2-methoxyphenyl)-5-methyl-5-(trifluoromethyl)tetrahydrothiophene-2-carboxamido)-2-fluorophenyl)boronic acid] | 
16 | 89.7% | COc1c(C2CC(C)(C(F)(F)F)SC2C(=O)Nc2ccc(B(O)O)c(Br)c2)ccc(F)c1F (stereo not drawn) [Compound 93, (2-bromo-4-(3-(3,4-difluoro-2-methoxyphenyl)-5-methyl-5-(trifluoromethyl)tetrahydrothiophene-2-carboxamido)phenyl)boronic acid] | 
17 | 77.9% | COC(=O)c1cc(NC(=O)[C@@H]2S[C@@](C)(C(F)(F)F)C[C@H]2c2ccc(F)c(F)c2OC)ccc1B(O)O [Compound 101-A, (4-((2R,3S,5R)-3-(3,4-difluoro-2-methoxyphenyl)-5-methyl-5-(trifluoromethyl)tetrahydrothiophene-2-carboxamido)-2-(methoxycarbonyl)phenyl)boronic acid] | 
18 | 76.5% | COc1c(C2CC(C)(C)SC2C(=O)Nc2ccnc(C(N)=O)c2)ccc(F)c1F (stereo not drawn) [Compound 134, 4-(3-(3,4-difluoro-2-methoxyphenyl)-5,5-dimethyltetrahydrothiophene-2-carboxamido)picolinamide] | 
19 | 96.2% | [2H][C@@]1(C(=O)Nc2ccnc(C(N)=O)c2)S[C@@](C)(C(F)(F)F)C[C@H]1c1ccc(F)c(F)c1OC [Compound 140-A, 4-((2R,3S,5R)-3-(3,4-difluoro-2-methoxyphenyl)-5-methyl-5-(trifluoromethyl)tetrahydrothiophene-2-carboxamido-2-d)picolinamide] | 
20 | 98.3% | COc1c([C@@H]2C[C@](C)(C(F)(F)F)S[C@H]2C(=O)Nc2ccc(F)c(C(N)=O)c2)ccc(F)c1F [Compound 146-A, (2R,3S,5R)-N-(3-carbamoyl-4-fluorophenyl)-3-(3,4-difluoro-2-methoxyphenyl)-5-methyl-5-(trifluoromethyl)tetrahydrothiophene-2-carboxamide] | 
21 | 97.9% | COc1c(C2CC(C)(C(F)(F)F)SC2C(=O)Nc2cc[nH]c(=O)c2)ccc(F)c1F (stereo not drawn) [Compound 170, 3-(3,4-difluoro-2-methoxyphenyl)-5-methyl-N-(2-oxo-1,2-dihydropyridin-4-yl)-5-(trifluoromethyl)tetrahydrothiophene-2-carboxamide] | 
22 | 86.5% | COc1c(C2CC(C)(C(F)(F)F)SC2C(=O)Nc2ccn(C)c(=O)c2)ccc(F)c1F (stereo not drawn) [Compound 172, 3-(3,4-difluoro-2-methoxyphenyl)-5-methyl-N-(1-methyl-2-oxo-1,2-dihydropyridin-4-yl)-5-(trifluoromethyl)tetrahydrothiophene-2-carboxamide] | 
23 | 86% | COc1c(C2CC(C)(C(F)(F)F)SC2C(=O)Nc2ccc(=O)n(C)c2)ccc(F)c1F (stereo not drawn) [Compound 178, 3-(3,4-difluoro-2-methoxyphenyl)-5-methyl-N-(1-methyl-6-oxo-1,6-dihydropyridin-3-yl)-5-(trifluoromethyl)tetrahydrothiophene-2-carboxamide] | 
24 | 90.2% | COc1c([C@@H]2C[C@](C)(C(F)(F)F)S[C@H]2C(=O)Nc2ccc(=O)n(C)c2)ccc(F)c1F [Compound 178-A, (2R,3S,5R)-3-(3,4-difluoro-2-methoxyphenyl)-5-methyl-N-(1-methyl-6-oxo-1,6-dihydropyridin-3-yl)-5-(trifluoromethyl)tetrahydrothiophene-2-carboxamide] | 
